# Data published in PMC4222048 (European journal of pharmacology, 2014).
# Changes are numbered by the printed parent chain. Where a name gives a salt, the structure may show the parent alone. Read-outs that look alike come from different tables or passages of the source.
# How the values were obtained:
# [1] = target: T1, human K2P18.1 (Homo sapiens, UniProt Q7Z418); assay: Thallium-flux assay, HEK293 cells transfected with human K2P18.1; type: cell-based; settings: for K2P18.1 Minimum Activity: fitted minimum, fixed at 0 where indicated
# T1 sequence (Q7Z418 1-384): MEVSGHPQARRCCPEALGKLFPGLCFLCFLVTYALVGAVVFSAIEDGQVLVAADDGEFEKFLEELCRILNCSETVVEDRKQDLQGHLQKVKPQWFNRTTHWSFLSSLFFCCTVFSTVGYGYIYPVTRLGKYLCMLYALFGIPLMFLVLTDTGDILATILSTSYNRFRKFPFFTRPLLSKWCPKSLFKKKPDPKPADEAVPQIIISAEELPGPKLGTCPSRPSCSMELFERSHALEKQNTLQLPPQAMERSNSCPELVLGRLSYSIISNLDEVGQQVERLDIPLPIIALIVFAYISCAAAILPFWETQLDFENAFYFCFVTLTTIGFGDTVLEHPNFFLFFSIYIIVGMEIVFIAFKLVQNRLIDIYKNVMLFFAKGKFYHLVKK
# [2] = target: T2, K2P9.1 (Homo sapiens, UniProt Q9NPC2); assay: Thallium-flux counter assay, tetracycline induced HEK293-K2P9.1 cells; type: cell-based; settings: for K2P9.1 Maximum Activity: dash = lack of compound activity
# [3] = target: T3, F145A/F352A double mutant K2P18.1 (mutK2P18.1) (Homo sapiens, UniProt Q7Z418, F145A/F352A); assay: Whole-cell patch clamp, HEK293-mutK2P18.1; settings: read-out: inhibition of mutK2P18.1 current
# T3 sequence (Q7Z418 1-384 F145A/F352A): T1 sequence (Q7Z418 1-384) with F145A, F352A
# [4] = target: T4, wild type K2P18.1 (wtK2P18.1) (Homo sapiens, UniProt Q7Z418); assay: Whole-cell patch clamp, HEK293-wtK2P18.1; type: cell-based
# T4 sequence (Q7Z418 1-384): T1 sequence (Q7Z418 1-384)
# [5] = target: T2, K2P9.1; assay: Whole-cell patch clamp, tetracycline induced HEK293-K2P9.1 cells; type: cell-based
# [6] = target: T3, F145A/F352A double mutant K2P18.1 (mutK2P18.1); assay: Thallium-flux assay, F145A/F352A double mutant K2P18.1 in HEK293 cells; type: cell-based
# [7] = system: F156A/F364A double mutant mouse K2P18.1; settings: 1 mM; ref Kim et al., 2013; cited from earlier work
# [8] = system: mouse K2P18.1; settings: 1 mM; ref Kim et al., 2013; cited from earlier work
# [9] = read-out: K2P9.1 EC50, validation assay, Tl+ flux, activators, highest 30 μM
# [10] = validation assay, Tl+ flux, activators
# [11] = read-out: K2P18.1 EC50, validation assay, Tl+ flux, activators, highest 30 μM
# [12] = read-out: K2P9.1 IC50, validation assay, Tl+ flux, HEK293-K2P9.1, highest 30 μM
# [13] = read-out: inhibition of wtK2P18.1 current
# T2 sequence (Q9NPC2 whole entry): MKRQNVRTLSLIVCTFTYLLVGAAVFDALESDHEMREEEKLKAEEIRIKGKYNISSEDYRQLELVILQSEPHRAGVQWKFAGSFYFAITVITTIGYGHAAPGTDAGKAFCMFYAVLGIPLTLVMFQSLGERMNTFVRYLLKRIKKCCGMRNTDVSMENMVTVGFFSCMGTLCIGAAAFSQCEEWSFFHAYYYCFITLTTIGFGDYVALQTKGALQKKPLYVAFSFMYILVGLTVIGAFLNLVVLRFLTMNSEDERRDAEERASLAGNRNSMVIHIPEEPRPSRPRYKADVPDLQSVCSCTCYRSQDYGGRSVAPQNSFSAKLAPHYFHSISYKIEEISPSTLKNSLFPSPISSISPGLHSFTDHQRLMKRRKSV
compound,measurement,setting,value
CN1CCN(C2Cc3ccccc3Sc3ccc(Cl)cc32)CC1.O=C(O)/C=C\C(=O)O (racemic) [(±)-Octoclothepin maleate],K2P18.1 Minimum Activity,"[1]; validation assay, Tl+ flux",0 (fixed) %
"CC1OCC(C[N+](C)(C)C)O1.[I-] (single isomer, unassigned; (+)) [(+)-cis-Dioxolane iodide]",EC50,[2]; [9],> 30 µM
same,K2P9.1 Maximum Activity,[2]; [10],-
same,EC50,[1]; [11],0.04 µM
same,K2P18.1 Maximum Activity,[1]; [10],165 (± 3.00) %
Cn1c(=O)c2c(nc(C=Cc3cccc(Cl)c3)n2C)n(C)c1=O [8-(3-Chlorostyryl)caffeine],IC50,[2],> 30 µM
same,K2P18.1 Minimum Activity,"[1]; validation assay, Tl+ flux",0 (fixed) %
"CS(=O)(=O)O.Cc1c(C(=O)c2cccc3ccccc23)c2cccc3c2n1[C@H](CN1CCOCC1)CO3 [(R)-(+)-WIN 55,212–2 mesylate]",IC50,[2]; [12],> 30 µM
same,K2P18.1 Minimum Activity,"[1]; validation assay, Tl+ flux",25.6 (± 28.3) %
C/C=C1\C(=O)C[C@H]2[C@@H]3CCC4=CC(=O)CC[C@]4(C)[C@H]3CC[C@]12C [(Z)-Gugglesterone],IC50,[2]; [12],> 30 µM
same,K2P18.1 Minimum Activity,"[1]; validation assay, Tl+ flux",0 (fixed) %
CC(=O)OC(C)C[N+](C)(C)C.[Cl-] (stereo not drawn) [Acetyl-beta-methylcholine chloride],EC50,[2]; [9],> 30 µM
same,K2P9.1 Maximum Activity,[2]; [10],-
same,EC50,[1]; [11],0.65 µM
same,K2P18.1 Maximum Activity,[1]; [10],184 (± 2.38) %
COC(=O)C1=CCCN(C)C1 [Arecoline hydrobromide],EC50,[2],> 30 µM
same,K2P9.1 Maximum Activity,[2]; [10],-
same,EC50,[1],2.7 µM
same,K2P18.1 Maximum Activity,[1]; [10],155 (± 10.8) %
Clc1ccc(C(c2ccc(Cl)cc2)n2cc[n+](CC(OCc3ccc(Cl)cc3Cl)c3ccc(Cl)cc3Cl)c2)cc1 (centres unmarked) [Calmidazolium chloride],IC50,[2],> 30 µM
same,K2P18.1 Minimum Activity,"[1]; validation assay, Tl+ flux",0 (fixed) %
"C[N+](C)(C)CCOC(N)=O [Carbachol, carbamoylcholine chloride, (2-Hydroxyethyl)trimethyl-ammonium chloride carbamate]",EC50,[2],> 30 µM
same,K2P9.1 Maximum Activity,[2]; [10],-
same,EC50,[1],1.59 µM
same,K2P18.1 Maximum Activity,[1]; [10],190 (± 9.96) %
Br.CO[C@H]1CC=C2CCN3CCC4=C(CC(=O)OC4)[C@]23C1 [Dihydro-beta-erythroidine hydrobromide],K2P18.1 Minimum Activity,"[1]; validation assay, Tl+ flux",0 (fixed) %
Cl.Cl.Fc1ccc(C(OCCN2CCN(CCCc3ccccc3)CC2)c2ccc(F)cc2)cc1 [GBR-12909 dihydrochloride],IC50,[2]; [12],> 30 µM
same,K2P18.1 Minimum Activity,"[1]; validation assay, Tl+ flux",0 (fixed) %
CN(C)c1cc2c(Nc3ccc4c(cnn4Cc4ccccc4)c3)ncnc2cn1 [GW2974],K2P18.1 Minimum Activity,"[1]; validation assay, Tl+ flux",0 (fixed) %
CCCn1c(C)c(C(=O)c2cccc3ccccc23)c2ccccc21 [JWH-015],IC50,[2]; [12],> 30 µM
same,K2P18.1 Minimum Activity,"[1]; validation assay, Tl+ flux",26.7 (± 2.1) %
CCCC(=O)NCCc1c2n(c3ccc(OC)cc13)CCCc1ccccc1-2 [K185],IC50,[2]; [12],> 30 µM
same,K2P18.1 Minimum Activity,"[1]; validation assay, Tl+ flux",0 (fixed) %
"CCCCOC(=O)NS(=O)(=O)c1sc(CC(C)C)cc1-c1ccc(Cn2c(CC)nc3c(C)cc(C)nc32)cc1 [L-162,313]",IC50,[2]; [12],> 30 µM
same,K2P18.1 Minimum Activity,"[1]; validation assay, Tl+ flux",15.5 (± 12.5) %
"Cc1c(CC(C)(C)C(=O)O)n(Cc2ccc(Cl)cc2)c2ccc(F)cc12 [L-655,240]",IC50,[2]; [12],> 30 µM
same,K2P18.1 Minimum Activity,"[1]; validation assay, Tl+ flux",0 (fixed) %
"Ic1ccccc1CNC1C2CCN(CC2)C1C(c1ccccc1)c1ccccc1.O=C(O)C(=O)O [L-703,606 oxalate]",K2P18.1 Minimum Activity,"[1]; validation assay, Tl+ flux",1.30 (± 9.2) %
CCOC(=O)N1CCC(=C2c3ccc(Cl)cc3CCc3cccnc32)CC1 [Loratadine],inhibition at 10 µM,[3],3.9 ± 13.3%
same,IC50,[4],0.49 ± 0.23 µM
same,selectivity for K2P18.1 over K2P9.1,[4]; from patch clamp IC50 values,~ 11 fold
same,inhibition at 10 µM,[4]; [13],87.5 ± 3.7%
same,IC50,[5],5.27 ± 1.69 µM
same,inhibition at 150 µM,"[6]; HEK293, read-out: inhibition against mutK2P18.1",< 50%
same,lower potency against mutK2P18.1 compared to wtK2P18.1,[6]; Tl+ flux,at least 50 fold
same,K2P18.1 Minimum Activity,"[1]; validation assay, Tl+ flux",0 (fixed) %
CC(C)c1ccc2c(c1)c(SC(C)(C)C)c(CC(C)(C)C(=O)O)n2Cc1ccc(Cl)cc1 [MK-886],IC50,[2]; [12],> 30 µM
same,K2P18.1 Minimum Activity,"[1]; validation assay, Tl+ flux",23.5 (± 6.6) %
CC[C@H](C)C(=O)O[C@H]1CCC=C2C=C[C@H](C)[C@H](CC[C@@H]3C[C@@H](O)CC(=O)O3)[C@H]21 [Mevastatin],IC50,[2],> 30 µM
same,K2P18.1 Minimum Activity,"[1]; validation assay, Tl+ flux",13.7 (± 7.6) %
COCC(=O)O[C@]1(CCN(C)CCCc2nc3ccccc3[nH]2)CCc2cc(F)ccc2[C@@H]1C(C)C [Mibefradil dihydrochloride],K2P18.1 Minimum Activity,"[1]; validation assay, Tl+ flux",11.9 (± 2.04) %
C[C@@H]1O[C@H](C[N+](C)(C)C)CS1.[I-] [OXA-22 Iodide],EC50,[2]; [9],> 30 µM
same,K2P9.1 Maximum Activity,[2]; [10],-
same,EC50,[1]; [11],0.06 µM
same,K2P18.1 Maximum Activity,[1]; [10],166 (± 4.50) %
C[N+](C)(C)CC#CCN1CCCC1=O [Oxotremorine Methiodide],EC50,[2],> 30 µM
same,K2P9.1 Maximum Activity,[2]; [10],-
same,EC50,[1],0.24 µM
same,K2P18.1 Maximum Activity,[1]; [10],171 (± 4.60) %
"COc1cccc(-c2cc(=O)c3ccccc3o2)c1N [PD98,059]",IC50,[2]; [12],> 30 µM
same,K2P18.1 Minimum Activity,"[1]; validation assay, Tl+ flux",22.9 (± 23.3) %
CCCCCCCCCCCCCC(=O)O[C@@H]1[C@@H](C)[C@@]2(O)[C@@H](C=C(CO)C[C@]3(O)C(=O)C(C)=C[C@@H]23)[C@@H]2C(C)(C)[C@]12OC(C)=O [Phorbol 12-myristate 13-acetate],EC50,[2],> 30 µM
same,K2P9.1 Maximum Activity,[2]; [10],-
same,EC50,[1],0.03 µM
same,K2P18.1 Maximum Activity,[1],130 (± 2.01) %
COc1cc([C@@H]2c3cc4c(cc3[C@H](O)[C@H]3COC(=O)[C@H]23)OCO4)cc(OC)c1OC [Podophyllotoxin],IC50,[2],> 30 µM
same,IC50,[1],7.32 µM
same,K2P18.1 Minimum Activity,"[1]; validation assay, Tl+ flux",0 (fixed) %
CC(=O)c1c(O)c(C)c(O)c(Cc2c(O)c3c(c(C(=O)/C=C/c4ccccc4)c2O)OC(C)(C)C=C3)c1O [Rottlerin],IC50,[2],> 30 µM
same,IC50,[1],16.2 µM
same,K2P18.1 Minimum Activity,"[1]; validation assay, Tl+ flux",17.2 (± 42.4) %
O=C(CCCN1CCC2(CC1)C(=O)NCN2c1ccccc1)c1ccc(F)cc1 [Spiperone Hydrochloride],EC50,[2],> 30 µM
same,K2P9.1 Maximum Activity,[2]; [10],-
same,EC50,[1],3.02 µM
same,K2P18.1 Maximum Activity,[1]; [10],161 (± 4.90) %
COc1cc2c(cc1OC)-c1c/c(=N\c3c(C)cc(C)cc3C)n(C)c(=O)n1CC2 [Trequinsin hydrochloride],IC50,[2],> 30 µM
same,K2P18.1 Minimum Activity,"[1]; validation assay, Tl+ flux",3.90 (± 20.2) %
OCc1ccc(-c2nn(Cc3ccccc3)c3ccccc23)o1 [YC-1],IC50,[2]; [12],> 30 µM
same,K2P18.1 Minimum Activity,"[1]; validation assay, Tl+ flux",0 (fixed) %
"CCN(CC)CC(=O)Nc1c(C)cccc1C [lidocaine, 2-Diethylamino-N-(2,6-dimethylphenyl)acetamide]",inhibition at 1000 µM,[3],18.2 ± 5.8%
same,inhibition at 1000 µM,[4]; [13],65.2 ± 10.4%
same,inhibition of F156A/F364A double mutant mouse K2P18.1,[7],20 ± 15%
same,IC50,[6],11600 ± 7100 µM
same,IC50,"[1]; IC50 for K2P18.1 inhibition without carbachol, Tl+ flux, absence of carbachol",3650 ± 380 µM
same,inhibition of wild type mouse K2P18.1,[8],83 ± 5%
Oligomycin A,K2P18.1 Minimum Activity,"[1]; validation assay, Tl+ flux",52.0 (± 4.21) %
